What all share (assay): Kinase panel study
Common to all, as to assay type: biochemical

Assay [1] deals with T1, ALK (Homo sapiens, UniProt Q9UM73).
T1 construct: purchased Thermo Fisher Scientific
How it is done: (§1) The Kinase panel study was entirely provided by Thermo Fisher Scientific using the two lead compounds MW01 and MW05 as well as their derivatives (MW01-E06, MW01-E10, MW01-E14, MW01-E18, MW05-E2, MW05-E3, MW05-E9 and MW05-E10. The experiment was performed using the ZLyte or Adapta protocol according to manufacturer standard operating procedures.
(§2) Based on their similar effects in our screen and molecular analysis, MW01 and MW05 were used in comparative target deconvolution studies seeking common targets despite their distinct structures. To eliminate previously identified kinases regulating NF-κB activity, such as IKK, as possible targets of MW01 and MW05, an in vitro kinase inhibition assay was performed. […] We next investigated if any of the shared kinase targets of MW01 and MW05 play a role in genotoxic stress-induced NF-κB activity and established several criteria to narrow down pathway-relevant targets. Considering the similar NF-κB inhibition phenotypes of both compounds, we hypothesized first that the target should be shared by both lead compounds. Second, based on the CaCo2 recovery values and experimental treatment concentration of 10 µM), the putative target kinase should have a low IC50 of, at most, 2000 nM for both lead compounds in the in vitro kinase panel (Fig. 2A). Based on these criteria alone, we arrived at a relatively short list of potential targets for further analysis, leaving only PIK3CG, PIK3C2G, and CLK2 (Fig. 2B). IC50 values for PIK3C2G by both lead compounds agreed best with these criteria, but RNA expression analysis indicates high tissue specificity as well as lack of expression of this kinase in our U2-OS model cell line, which we then eliminated from further analysis (Uhlén et al., 2015). […] Table 6: Percentage of inhibition of the indicated kinases by MW01 or MW05 at either 10 µM or 1 µM. n.d. = not determined.

Assay [2] addresses T2, DYRK1A (Homo sapiens, UniProt Q13627).
T2 construct: purchased Thermo Fisher Scientific
How it is done:
as §1, §2

The target of assay [3] is T3, FRAP1 (mTOR) (Homo sapiens, UniProt P42345).
T3 construct: purchased Thermo Fisher Scientific
How it is done:
as §1, §2

Assay [4] addresses T4, IKBKB (IKK beta) (Homo sapiens, UniProt O14920).
T4 construct: purchased Thermo Fisher Scientific
T4 sequence (O14920 1-756): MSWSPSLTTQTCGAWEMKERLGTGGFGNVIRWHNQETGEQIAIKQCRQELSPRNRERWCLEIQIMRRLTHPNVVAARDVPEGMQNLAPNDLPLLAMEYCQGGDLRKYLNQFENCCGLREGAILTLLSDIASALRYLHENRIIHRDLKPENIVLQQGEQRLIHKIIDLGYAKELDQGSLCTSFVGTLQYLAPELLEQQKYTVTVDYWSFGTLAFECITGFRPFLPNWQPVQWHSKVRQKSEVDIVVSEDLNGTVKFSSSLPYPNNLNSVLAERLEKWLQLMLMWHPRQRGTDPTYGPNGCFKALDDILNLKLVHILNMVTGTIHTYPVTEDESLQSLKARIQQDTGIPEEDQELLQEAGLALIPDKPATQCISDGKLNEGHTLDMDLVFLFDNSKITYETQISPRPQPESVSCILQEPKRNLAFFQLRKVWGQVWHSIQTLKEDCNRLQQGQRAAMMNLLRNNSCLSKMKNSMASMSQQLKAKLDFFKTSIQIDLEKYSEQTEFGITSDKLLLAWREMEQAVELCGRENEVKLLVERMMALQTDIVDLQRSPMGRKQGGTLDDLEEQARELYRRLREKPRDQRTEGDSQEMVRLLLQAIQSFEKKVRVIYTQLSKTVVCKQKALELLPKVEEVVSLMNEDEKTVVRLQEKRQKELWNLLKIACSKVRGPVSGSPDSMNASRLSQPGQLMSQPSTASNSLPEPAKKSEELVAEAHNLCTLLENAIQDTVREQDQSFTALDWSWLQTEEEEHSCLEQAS
How it is done: as §1, §2

Assay [5] deals with T5, IRAK4 (Homo sapiens, UniProt Q9NWZ3).
T5 construct: purchased Thermo Fisher Scientific
T5 sequence (Q9NWZ3 1-460): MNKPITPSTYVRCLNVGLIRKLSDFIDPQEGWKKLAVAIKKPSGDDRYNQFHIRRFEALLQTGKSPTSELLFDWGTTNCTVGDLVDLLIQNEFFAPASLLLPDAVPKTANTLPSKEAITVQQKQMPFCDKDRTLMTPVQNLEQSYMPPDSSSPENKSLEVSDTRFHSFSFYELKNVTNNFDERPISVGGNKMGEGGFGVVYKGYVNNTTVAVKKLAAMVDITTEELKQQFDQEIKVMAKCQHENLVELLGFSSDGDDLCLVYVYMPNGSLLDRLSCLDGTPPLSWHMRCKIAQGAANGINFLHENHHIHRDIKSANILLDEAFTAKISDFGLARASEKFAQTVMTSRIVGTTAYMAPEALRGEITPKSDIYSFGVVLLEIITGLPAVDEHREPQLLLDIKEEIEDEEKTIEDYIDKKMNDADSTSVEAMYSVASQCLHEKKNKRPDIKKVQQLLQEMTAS
How it is done: as §1, §2

Assay [6] addresses T6, PI4K2A (PI4K2 alpha) (Homo sapiens, UniProt Q9BTU6).
T6 construct: purchased Thermo Fisher Scientific
How it is done:
as §1, §2

In assay [7] the target is T7, PI4K2B (PI4K2 beta) (Homo sapiens, UniProt Q8TCG2).
T7 construct: purchased Thermo Fisher Scientific
T7 sequence (Q8TCG2 whole entry): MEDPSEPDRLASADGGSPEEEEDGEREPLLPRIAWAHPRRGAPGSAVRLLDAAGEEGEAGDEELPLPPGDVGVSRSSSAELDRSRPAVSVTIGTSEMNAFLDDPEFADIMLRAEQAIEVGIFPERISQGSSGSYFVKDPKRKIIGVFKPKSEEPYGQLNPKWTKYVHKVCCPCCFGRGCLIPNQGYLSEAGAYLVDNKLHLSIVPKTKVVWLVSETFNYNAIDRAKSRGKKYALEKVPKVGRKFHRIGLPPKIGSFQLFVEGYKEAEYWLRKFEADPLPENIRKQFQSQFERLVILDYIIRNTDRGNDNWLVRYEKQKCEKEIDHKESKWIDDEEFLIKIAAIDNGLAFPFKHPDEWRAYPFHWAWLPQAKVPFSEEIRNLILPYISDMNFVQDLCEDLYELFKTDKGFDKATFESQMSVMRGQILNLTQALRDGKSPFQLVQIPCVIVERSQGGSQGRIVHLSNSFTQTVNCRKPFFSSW
How it is done:
as §1, §2

Assay [8] concerns the target T8, PIK3CA/PIK3R1 (p11 0 alpha/p85 alpha) (Homo sapiens, UniProt P42336).
T8 construct: purchased Thermo Fisher Scientific
Here is the method: as §1, §2

For assay [9], the target named is T9, PIK3CA/PIK3R3 (p11 0 alpha/p55 gamma) (Homo sapiens, UniProt P42336).
T9 construct: purchased Thermo Fisher Scientific
How it is done:
as §1, §2

Assay [10] concerns the target T10, PIK3CB/PIK3R1 (p110 beta/p85 alpha) (Homo sapiens, UniProt P42338).
T10 construct: purchased Thermo Fisher Scientific
How it is done: as §1, §2

In assay [11] the target is T11, PIK3CG (p11 0 gamma) (Homo sapiens, UniProt P48736).
T11 construct: purchased Thermo Fisher Scientific
T11 sequence (P48736 whole entry): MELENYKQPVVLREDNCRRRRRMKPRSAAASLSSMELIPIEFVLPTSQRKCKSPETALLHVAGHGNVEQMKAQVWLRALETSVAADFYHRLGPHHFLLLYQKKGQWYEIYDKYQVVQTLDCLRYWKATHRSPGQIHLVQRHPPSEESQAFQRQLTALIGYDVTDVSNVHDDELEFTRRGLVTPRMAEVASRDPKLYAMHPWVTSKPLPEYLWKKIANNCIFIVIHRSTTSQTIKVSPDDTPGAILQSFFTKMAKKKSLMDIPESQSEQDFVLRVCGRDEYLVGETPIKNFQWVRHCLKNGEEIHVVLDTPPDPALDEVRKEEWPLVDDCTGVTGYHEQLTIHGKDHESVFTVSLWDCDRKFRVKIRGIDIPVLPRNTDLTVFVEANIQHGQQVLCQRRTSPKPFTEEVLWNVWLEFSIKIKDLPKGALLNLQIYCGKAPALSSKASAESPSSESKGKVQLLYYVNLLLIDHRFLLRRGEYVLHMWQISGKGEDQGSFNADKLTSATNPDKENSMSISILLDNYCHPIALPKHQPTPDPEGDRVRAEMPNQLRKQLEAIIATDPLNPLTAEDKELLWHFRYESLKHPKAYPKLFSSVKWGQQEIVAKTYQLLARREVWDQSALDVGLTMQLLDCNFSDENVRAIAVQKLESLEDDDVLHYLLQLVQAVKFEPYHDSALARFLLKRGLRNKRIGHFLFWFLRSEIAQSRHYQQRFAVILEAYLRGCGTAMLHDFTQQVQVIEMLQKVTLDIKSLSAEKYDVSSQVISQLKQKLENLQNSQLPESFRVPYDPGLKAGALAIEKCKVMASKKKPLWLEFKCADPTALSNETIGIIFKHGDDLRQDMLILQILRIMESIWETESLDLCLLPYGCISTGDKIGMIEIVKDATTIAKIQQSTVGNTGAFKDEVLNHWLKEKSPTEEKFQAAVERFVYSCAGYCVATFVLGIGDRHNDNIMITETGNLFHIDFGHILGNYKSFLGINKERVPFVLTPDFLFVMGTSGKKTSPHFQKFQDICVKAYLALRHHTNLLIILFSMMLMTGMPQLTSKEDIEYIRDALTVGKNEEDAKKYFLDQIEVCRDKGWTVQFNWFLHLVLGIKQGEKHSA
How it is done: as §1, §2

Assay [12] has as its target T12, PIP5K1A (Homo sapiens, UniProt Q99755).
T12 construct: purchased Thermo Fisher Scientific
How it is done: as §1, §2

[13] abbreviates: 1000nM, read-out: Percentage of inhibition.
The mark [14] stands for this setting: 10000nM, read-out: Percentage of inhibition.

The text below walks through data of patent publication EP4467141A1, “PYRAZOLO-QUINOLINES AS SELECTIVE INHIBITORS OF GENOTOXIC STRESS-INDUCED IKK/NF- KB PATHWAYS FOR CANCER THERAPY” (Max-Delbrück-Centrum für Molekulare Medizin in der …, priority 2023, dated 2024).

Like-named read-outs stand apart in the source and are kept apart here.

T10 sequence (P42338 whole entry): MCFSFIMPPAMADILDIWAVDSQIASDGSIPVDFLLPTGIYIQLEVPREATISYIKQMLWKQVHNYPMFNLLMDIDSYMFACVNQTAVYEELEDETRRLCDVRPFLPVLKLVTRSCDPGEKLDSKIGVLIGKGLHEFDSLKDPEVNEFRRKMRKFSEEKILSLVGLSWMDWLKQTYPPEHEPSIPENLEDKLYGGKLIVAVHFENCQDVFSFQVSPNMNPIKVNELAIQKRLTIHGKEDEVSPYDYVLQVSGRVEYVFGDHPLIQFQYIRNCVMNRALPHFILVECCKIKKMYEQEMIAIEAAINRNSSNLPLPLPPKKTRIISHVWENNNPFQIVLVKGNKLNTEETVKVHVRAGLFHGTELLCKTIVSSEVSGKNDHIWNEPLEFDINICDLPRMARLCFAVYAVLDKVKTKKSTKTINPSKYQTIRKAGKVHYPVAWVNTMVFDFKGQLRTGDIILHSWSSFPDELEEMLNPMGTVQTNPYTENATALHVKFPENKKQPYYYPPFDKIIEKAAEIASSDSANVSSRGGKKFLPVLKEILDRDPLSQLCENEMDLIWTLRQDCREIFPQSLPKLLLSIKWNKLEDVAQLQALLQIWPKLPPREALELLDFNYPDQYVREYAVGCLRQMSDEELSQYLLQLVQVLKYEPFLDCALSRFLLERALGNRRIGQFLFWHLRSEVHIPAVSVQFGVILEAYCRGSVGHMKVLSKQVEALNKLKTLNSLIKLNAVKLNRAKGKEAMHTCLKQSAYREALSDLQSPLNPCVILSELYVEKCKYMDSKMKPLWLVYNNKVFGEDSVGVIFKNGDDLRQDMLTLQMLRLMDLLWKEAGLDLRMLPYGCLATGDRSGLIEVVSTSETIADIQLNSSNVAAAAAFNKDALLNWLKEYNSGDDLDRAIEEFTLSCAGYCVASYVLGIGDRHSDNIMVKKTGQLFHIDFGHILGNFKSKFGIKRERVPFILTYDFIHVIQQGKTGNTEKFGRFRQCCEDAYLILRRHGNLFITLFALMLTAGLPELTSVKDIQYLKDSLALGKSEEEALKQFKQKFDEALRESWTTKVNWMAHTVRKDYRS
T10 sequence (P27986 whole entry partner): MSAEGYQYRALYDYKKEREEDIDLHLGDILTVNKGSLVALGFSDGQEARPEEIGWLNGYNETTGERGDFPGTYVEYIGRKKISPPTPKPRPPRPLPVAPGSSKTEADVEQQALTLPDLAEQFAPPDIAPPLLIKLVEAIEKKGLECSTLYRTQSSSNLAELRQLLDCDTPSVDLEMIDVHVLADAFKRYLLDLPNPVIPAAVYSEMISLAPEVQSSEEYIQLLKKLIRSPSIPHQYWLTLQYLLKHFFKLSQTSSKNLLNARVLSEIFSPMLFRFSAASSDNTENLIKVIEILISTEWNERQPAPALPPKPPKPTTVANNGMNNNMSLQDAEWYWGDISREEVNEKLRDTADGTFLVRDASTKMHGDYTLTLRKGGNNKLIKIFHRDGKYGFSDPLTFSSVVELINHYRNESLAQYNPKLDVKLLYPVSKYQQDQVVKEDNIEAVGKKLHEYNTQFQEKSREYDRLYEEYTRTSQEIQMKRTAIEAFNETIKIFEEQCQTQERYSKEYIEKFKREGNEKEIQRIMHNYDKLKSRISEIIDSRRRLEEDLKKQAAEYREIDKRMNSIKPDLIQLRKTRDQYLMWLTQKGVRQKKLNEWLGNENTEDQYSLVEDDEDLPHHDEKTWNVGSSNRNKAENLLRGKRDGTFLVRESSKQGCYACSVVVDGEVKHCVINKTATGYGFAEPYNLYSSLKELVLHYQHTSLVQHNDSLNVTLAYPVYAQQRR
T12 sequence (Q99755 whole entry): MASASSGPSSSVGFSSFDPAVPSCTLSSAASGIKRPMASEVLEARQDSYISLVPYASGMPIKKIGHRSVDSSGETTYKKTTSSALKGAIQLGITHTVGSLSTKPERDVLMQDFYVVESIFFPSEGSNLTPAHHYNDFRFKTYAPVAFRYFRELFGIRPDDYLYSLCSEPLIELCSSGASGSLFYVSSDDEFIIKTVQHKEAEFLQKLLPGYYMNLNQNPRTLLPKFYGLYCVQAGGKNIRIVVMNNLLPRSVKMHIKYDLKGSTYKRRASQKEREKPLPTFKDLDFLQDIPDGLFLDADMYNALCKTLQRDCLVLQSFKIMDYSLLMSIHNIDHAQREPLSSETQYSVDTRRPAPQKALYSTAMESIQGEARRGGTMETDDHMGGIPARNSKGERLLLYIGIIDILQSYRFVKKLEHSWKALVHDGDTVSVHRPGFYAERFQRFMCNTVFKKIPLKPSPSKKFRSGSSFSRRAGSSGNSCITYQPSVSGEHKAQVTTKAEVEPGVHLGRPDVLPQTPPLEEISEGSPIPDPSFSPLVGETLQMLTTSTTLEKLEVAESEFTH
T6 sequence (Q9BTU6 whole entry): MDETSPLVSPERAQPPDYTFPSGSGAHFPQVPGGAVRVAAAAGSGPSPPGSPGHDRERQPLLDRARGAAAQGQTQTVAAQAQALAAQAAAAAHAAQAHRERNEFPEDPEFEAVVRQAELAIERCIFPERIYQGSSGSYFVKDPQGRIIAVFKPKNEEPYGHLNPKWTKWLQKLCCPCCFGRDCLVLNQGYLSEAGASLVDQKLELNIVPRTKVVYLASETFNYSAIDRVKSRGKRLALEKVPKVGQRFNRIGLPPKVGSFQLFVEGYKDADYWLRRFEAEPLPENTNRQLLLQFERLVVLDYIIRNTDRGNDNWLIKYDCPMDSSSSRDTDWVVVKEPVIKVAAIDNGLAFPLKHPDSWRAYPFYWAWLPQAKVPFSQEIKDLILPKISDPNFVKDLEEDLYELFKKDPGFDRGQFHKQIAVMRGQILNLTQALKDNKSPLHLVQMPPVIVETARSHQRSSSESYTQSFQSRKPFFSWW

Turning to `COc1ccc2cc3c(N)nn(C(=O)c4cccc(N(C)C)c4)c3nc2c1` [MW05, (3-Amino-7-methoxypyrazolo[3,4-b]quinolin-1-yl)-[3-(dimethylamino)phenyl]methanone], the inhibition at 1 µM in [1] (setting [13]) is 0%; in [2] (setting [13]), 22%; in assay [3] (setting [13]), 31%; in assay [4] (setting [13]) it was 6%; in assay [5] (setting [13]), 0%; in [6] (setting [13]), -7%. Also, the inhibition at 1 µM is 9% in [7] (setting [13]); 14% in assay [8] (setting [13]); 16% in [9] (setting [13]); 21% in assay [10] (setting [13]); 20% in assay [11] (setting [13]); -6% in [12] (setting [13]). Also, the inhibition at 10 µM in assay [1] (setting [14]) is -2%; in assay [2] (setting [14]) it was 60%; in assay [3] (setting [14]), 81%; in assay [4] (setting [14]), 5%; in assay [5] (setting [14]), 2%; in assay [6] (setting [14]), -1%. Moreover, the inhibition at 10 µM in assay [7] (setting [14]) amounted to 0%; in assay [8] (setting [14]), 52%; in [9] (setting [14]), 63%; in assay [10] (setting [14]), 67%; in assay [11] (setting [14]) it was 70%; in assay [12] (setting [14]), 5%. This compound gave a half-inhibitory concentration (IC50) in [11] (in vitro kinase panel, criterion of at most 2000 nM) of no more than 2 µM.
`COc1ccc2nc3c(cc2c1)c(N)nn3C(=O)c1cccc(N(C)C)c1` [MW05-E2, 1-[3-(dimethylamino)benzoyl]-6-methoxy-1H-pyrazolo[3,4-b]quinolin-3-amine]: the inhibition at 10 µM in assay [1] (ALK, compound at 10µM, read-out: % of Inhibition) was 24%; in assay [2] (DYRK1A, compound at 10µM, read-out: % of Inhibition), 53%; in assay [3] (FRAP1 (mTOR), compound at 10µM, read-out: % of Inhibition) it was 5%; in assay [4] (IKBKB (IKK beta), compound at 10µM, read-out: % of Inhibition) it was 12%; in [5] (IRAK4, compound at 10µM, read-out: % of Inhibition), -3%; in [6] (PI4K2A (PI4K2 alpha), compound at 10µM, read-out: % of Inhibition) it was -4%. Moreover, the inhibition at 10 µM in [7] (PI4K2B (PI4K2 beta), compound at 10µM, read-out: % of Inhibition) is 8%; in assay [8] (PIK3CA/PIK3R1, compound at 10µM, read-out: % of Inhibition), 26%; in assay [9] (PIK3CA/PIK3R3, compound at 10µM, read-out: % of Inhibition), 8%; in [10] (PIK3CB/PIK3R1, compound at 10µM, read-out: % of Inhibition) it was 1%; in assay [11] (PIK3CG, compound at 10µM, read-out: % of Inhibition), 2%; in [12] (PIP5K1A, compound at 10µM, read-out: % of Inhibition) it was -9%.
